According to patent publication US20240150356A1, “Pyrimidine amide compounds and use thereof” (ALPHALA CO., LTD., priority 2019, published 2024):

What follows are compounds tested on Hep3B cells (hepatocellular carcinoma cell line) (assay: In vitro MTS cell viability assay (NCI-60 methodology), Hep3B). Details: Homo sapiens, 48 h, Table 6, MTS, 2 days drug incubation, 50% reduction vs time zero, read-out: Hep3B LC50.
Assay type: cell-based
In short: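 Hep3B cells given five 2-fold dilutions of compound for 2 days, with viability by MTS measured at time zero and at end. LC50 is the concentration giving a 50% fall in viable cells relative to the start of treatment, per NCI-60 formula.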

Compared with `O=C(Nc1nc(N2CCC(F)(F)CC2)nc2c1cnn2-c1ccc(F)cc1)c1ccc([N+](=O)[O-])s1` [Compound 6-98, N-(6-(4,4-difluoropiperidin-1-yl)-1-(4-fluorophenyl)-1H-pyrazolo[3,4-d]pyrimidin-4-yl)-5-nitrothiophene-2-carboxamide], `O=C(Nc1nc(N2CCC[C@H]2CO)nc2c1cnn2-c1ccc(F)cc1)c1ccc([N+](=O)[O-])s1` [Compound 6-102, (S)—N-(1-(4-fluorophenyl)-6-(2-(hydroxymethyl)pyrrolidin-1-yl)-1H-pyrazolo[3,4-d]pyrimidin-4-yl)-5-nitrothiophene-2-carboxamide] is 3-fold higher in LC50: 430 nM for the first, 1300 nM for the second.

`C[C@@H]1CN(c2nc(NC(=O)c3ccc([N+](=O)[O-])s3)c3cnn(-c4ccc(F)cc4)c3n2)C[C@H](C)O1` [Compound 6-99, N-(6-((2S,6R)-2,6-dimethylmorpholino)-1-(4-fluorophenyl)-1H-pyrazolo[3,4-d]pyrimidin-4-yl)-5-nitrothiophene-2-carboxamide] and `COC[C@@H]1CCCN1c1nc(NC(=O)c2ccc([N+](=O)[O-])s2)c2cnn(-c3ccc(F)cc3)c2n1` [Compound 6-103, (S)—N-(1-(4-fluorophenyl)-6-(2-(methoxymethyl)pyrrolidin-1-yl)-1H-pyrazolo[3,4-d]pyrimidin-4-yl)-5-nitrothiophene-2-carboxamide] are within 1.5-fold of each other in LC50: 610 nM for the first, 780 nM for the second.

First: COC(=O)[C@@H]1CCCN1c1nc(NC(=O)c2ccc([N+](=O)[O-])s2)c2cnn(-c3ccc(F)cc3)c2n1 [Compound 6-100, methyl (1-(4-fluorophenyl)-4-(5-nitrothiophene-2-carboxamido)-1H-pyrazolo [3,4-d]pyrimidin-6-yl)-L-prolinate]
Second: CCOC(=O)[C@@H]1CCCN1c1nc(NC(=O)c2ccc([N+](=O)[O-])s2)c2cnn(-c3ccc(F)cc3)c2n1 [Compound 6-101, ethyl (1-(4-fluorophenyl)-4-(5-nitrothiophene-2-carboxamido)-1H-pyrazolo[3,4-d]pyrimidin-6-yl)-L-prolinate]
The LC50 of the first is lower: 740 nM for the first, over 1250 nM for the second.

First: CCCOC[C@@H]1CCCN1c1nc(NC(=O)c2ccc([N+](=O)[O-])s2)c2cnn(-c3ccc(F)cc3)c2n1 [Compound 6-105, (S)—N-(1-(4-fluorophenyl)-6-(2-(propoxymethyl)pyrrolidin-1-yl)-1H-pyrazolo[3,4-d]pyrimidin-4-yl)-5-nitrothiophene-2-carboxamide]
Second: CC1CCC(c2nc(NC(=O)c3ccc([N+](=O)[O-])s3)c3cnn(-c4ccc(F)cc4)c3n2)CC1 (stereo not shown) [Compound 6-143, N-(1-(4-fluorophenyl)-6-(4-methylcyclohexyl)-1H-pyrazolo[3,4-d]pyrimidin-4-yl)-5-nitrothiophene-2-carboxamide]
The LC50 of the first is 2.4-fold lower: 420 nM for the first, 1020 nM for the second.

`O=C(Nc1nc(-c2ccsc2)nc2c1cnn2-c1ccc(F)cc1)c1ccc([N+](=O)[O-])s1` [Compound 6-107] and `O=C(Nc1nc(-c2ccccc2F)nc2c1cnn2-c1ccc(F)cc1)c1ccc([N+](=O)[O-])s1` [Compound 6-113, N-(6-(2-fluorophenyl)-1-(4-fluorophenyl)-1H-pyrazolo[3,4-d]pyrimidin-4-yl)-5-nitrothiophene-2-carboxamide] are within 1.5-fold of each other in LC50: 370 nM for the first, 400 nM for the second.

First: Cc1ccn(-c2nc(NC(=O)c3ccc([N+](=O)[O-])s3)c3cnn(-c4ccc(F)cc4)c3n2)n1 [Compound 6-108]
Second: O=C(Nc1nc(-n2ccc(C(F)(F)F)n2)nc2c1cnn2-c1ccc(F)cc1)c1ccc([N+](=O)[O-])s1 [Compound 6-109, N-(1-(4-fluorophenyl)-6-(3-(trifluoromethyl)-1H-pyrazol-1-yl)-1H-pyrazolo[3,4-d]pyrimidin-4-yl)-5-nitrothiophene-2-carboxamide]
The LC50 of the first is 4.2-fold lower: 90 nM for the first, 380 nM for the second.

`O=C(Nc1nc(-c2ccc(C(F)(F)F)cc2)nc2c1cnn2-c1ccc(F)cc1)c1ccc([N+](=O)[O-])s1` [Compound 6-122, N-(1-(4-fluorophenyl)-6-(4-(trifluoromethyl)phenyl)-1H-pyrazolo[3,4-d]pyrimidin-4-yl)-5-nitrothiophene-2-carboxamide] and `O=C(Nc1nc(-c2ccc(OC(F)(F)F)cc2)nc2c1cnn2-c1ccc(F)cc1)c1ccc([N+](=O)[O-])s1` [Compound 6-123, N-(1-(4-fluorophenyl)-6-(4-(trifluoromethoxy)phenyl)-1H-pyrazolo[3,4d]pyrimidin-4-yl)-5-nitrothiophene-2-carboxamide] are within 1.5-fold of each other in LC50: 280 nM for the first, 340 nM for the second.

First: O=C(Nc1nc(-c2ccc3c(c2)OCO3)nc2c1cnn2-c1ccc(F)cc1)c1ccc([N+](=O)[O-])s1 [Compound 6-124, N-(6-(benzo[d][1,3]dioxol-5-yl)-1-(4-fluorophenyl)-1H-pyrazolo[3,4-d]pyrimidin-4-yl)-5-nitrothiophene-2-carboxamide]
Second: O=C(Nc1nc(-c2ccc(F)cc2F)nc2c1cnn2-c1ccc(F)cc1)c1ccc([N+](=O)[O-])s1 [Compound 6-126]
The LC50 of the first is 1.6-fold higher: 550 nM for the first, 350 nM for the second.

`CCOc1cc(Cl)ccc1-c1nc(NC(=O)c2ccc([N+](=O)[O-])s2)c2cnn(-c3ccc(F)cc3)c2n1` [Compound 6-129, N-(6-(4-chloro-2-ethoxyphenyl)-1-(4-fluorophenyl)-1H-pyrazolo[3,4-d]pyrimidin-4-yl)-5-nitrothiophene-2-carboxamide] and `CCOCCOCCOc1cc(Cl)ccc1-c1nc(NC(=O)c2ccc([N+](=O)[O-])s2)c2cnn(-c3ccc(F)cc3)c2n1` [Compound 6-140, N-(6-(4-chloro-2-(2-(2-ethoxyethoxy)ethoxy)phenyl)-1-(4-fluorophenyl)-1H-pyrazolo[3,4-d]pyrimidin-4-yl)-5-nitrothiophene-2-carboxamide] cannot be ordered by LC50: over 3000 nM for the first, 4830 nM for the second.

Going from `COCCN(C)c1ccc(-c2nc(NC(=O)c3ccc([N+](=O)[O-])s3)c3cnn(-c4ccc(F)cc4)c3n2)cn1` [Compound 6-131, N-(1-(4-fluorophenyl)-6-(6-((2-methoxyethyl)(methyl)amino)pyridin-3-yl)-1H-pyrazolo[3,4-d]pyrimidin-4-yl)-5-nitrothiophene-2-carboxamide] to `O=C(Nc1nc(-c2ccc(OCCO)nc2)nc2c1cnn2-c1ccc(F)cc1)c1ccc([N+](=O)[O-])s1` [Compound 6-134, N-(1-(4-fluorophenyl)-6-(6-(2-hydroxyethoxy)pyridin-3-yl)-1H-pyrazolo[3,4,d]pyrimidin-4-yl)-5-nitrothiophene-2-carboxamide], the LC50 falls from 370 nM to 220 nM (1.7-fold).

Going from `CCCOc1ccc(-c2nc(NC(=O)c3ccc([N+](=O)[O-])s3)c3cnn(-c4ccc(F)cc4)c3n2)cc1` [Compound 6-132] to `CCOCCOc1ccc(-c2nc(NC(=O)c3ccc([N+](=O)[O-])s3)c3cnn(-c4ccc(F)cc4)c3n2)cn1` [Compound 6-136, N-(6-(6-(2-ethoxyethoxy)pyridin-3-yl)-1-(4-fluorophenyl)-1H-pyrazolo[3,4-d]pyrimidin-4-yl)-5-nitrothiophene-2-carboxamide], the LC50 falls from 430 nM to 260 nM (1.7-fold).

`CCOCCOCCOc1ccc(-c2nc(NC(=O)c3ccc([N+](=O)[O-])s3)c3cnn(-c4ccc(F)cc4)c3n2)cn1` [Compound 6-137, N-(6-(6-(2-(2-ethoxyethoxy)ethoxy)pyridin-3-yl)-1-(4-fluorophenyl)-1H-pyrazolo[3,4-d]pyrimidin-4-yl)-5-nitrothiophene-2-carboxamide] and `CCOCCOCCOc1cc(C)c(-c2nc(NC(=O)c3ccc([N+](=O)[O-])s3)c3cnn(-c4ccc(F)cc4)c3n2)cn1` [Compound 6-139, N-(6-(6-(2-(2-ethoxyethoxy)ethoxy)-4-methylpyridin-3-yl)-1-(4-fluorophenyl)-1H-pyrazolo[3,4-d]pyrimidin-4-yl)-5-nitrothiophene-2-carboxamide] are within 1.5-fold of each other in LC50: 180 nM for the first, 210 nM for the second.

Compared with `COCCOc1ccc(-c2nc(NC(=O)c3ccc([N+](=O)[O-])s3)c3cnn(-c4ccc(F)cc4)c3n2)c(F)c1` [Compound 6-138, N-(6-(2-fluoro-4-(2-methoxyethoxy)phenyl)-1-(4-fluorophenyl)-1H-pyrazolo[3,4,d]pyrimidin-4-yl)-5-nitrothiophene-2-carboxamide], `CC1CC=C(c2nc(NC(=O)c3ccc([N+](=O)[O-])s3)c3cnn(-c4ccc(F)cc4)c3n2)CC1` (stereo not shown) [Compound 6-142] is lower in LC50: over 1250 nM for the first, 740 nM for the second.

`O=C(Nc1nc(-c2ccc(N3CCOCC3)nc2)nc2c1cnn2-c1ccc(F)cc1)c1ccc([N+](=O)[O-])s1` [Compound 6-141, N-(1-(4-fluorophenyl)-6-(6-morpholinopyridin-3-yl)-1H-pyrazolo[3,4-d]pyrimidin-4-yl)-5-nitrothiophene-2-carboxamide] and `CC1(C)CC=C(c2nc(NC(=O)c3ccc([N+](=O)[O-])s3)c3cnn(-c4ccc(F)cc4)c3n2)CC1` [Compound 6-144, N-(6-(4,4-dimethylcyclohex-1-en-1-yl)-1-(4-fluorophenyl)-1H-pyrazolo[3,4-d]pyrimidin-4-yl)-5-nitrothiophene-2-carboxamide] are within 1.5-fold of each other in LC50: 420 nM for the first, 550 nM for the second.

`CC1(C)CCC(c2nc(NC(=O)c3ccc([N+](=O)[O-])s3)c3cnn(-c4ccc(F)cc4)c3n2)CC1` [Compound 6-145, N-(6-(4,4-dimethylcyclohexyl)-1-(4-fluorophenyl)-1H-pyrazolo[3,4-d]pyrimidin-4-yl)-5-nitrothiophene-2-carboxamide] gave an LC50 of 890 nM.

Same assay, conditions: Homo sapiens, 48 h, Table 7, MTS, 2 days drug incubation, 50% reduction vs time zero, read-out: Hep3B LC50

`O=C(Nc1nc(-c2ccc(F)nc2)nc2c1cnn2-c1ccc(C(F)(F)F)cn1)c1ccc([N+](=O)[O-])s1` [Compound 7-2, N-(6-(6-fluoropyridin-3-yl)-1-(5-(trifluoromethyl)pyridin-2-yl)-1H-pyrazolo[3,4,d]pyrimidin-4-yl)-5-nitrothiophene-2-carboxamide] and `O=C(Nc1nc(-c2ccc(C(F)(F)F)cc2)nc2c1cnn2-c1ccc(C(F)(F)F)cn1)c1ccc([N+](=O)[O-])s1` [Compound 7-4, 5-nitro-N-(6-(4-(trifluoromethyl)phenyl)-1-(5-(trifluoromethyl)pyridin-2-yl)-1H-pyrazolo[3,4-d]pyrimidin-4-yl)thiophene-2-carboxamide] are within 1.5-fold of each other in LC50: 150 nM for the first, 220 nM for the second.
